Source: patent US8343475B2, “Small cationic antimicrobial peptides” (priority 2006, dated 2013)
Converted amounts (≈) assume the structure as drawn. Residues, ends and D or L forms follow the SMILES beside them.

Experiments:
[1] = test system: MCP-1 release by human PBMC; assay: Chemokine induction in PBMC (capture ELISA); format: cell-based; settings: background (204) subtracted
Protocol: FIG. 15. Induction of MCP-1 release by 7.5×10^5 human PBMC in response to treatment with 20 or 100 μg/ml of different peptides for 24 hours.
(§1) Venous blood (20 ml) from healthy volunteers was collected in Vacutainer® collection tubes containing sodium heparin as an anticoagulant (Becton Dickinson, Mississauga, ON) in accordance with UBC ethical approval and guidelines. Blood was diluted 1:1 with complete RPMI 1640 medium and separated by centrifugation over a Ficoll-Paque® Plus (Amersham Biosciences, Piscataway, N.J., USA) density gradient. White blood cells were isolated from the buffy coat, washed twice in RPMI 1640 complete medium, and the number of peripheral blood mononuclear cells (PBMC) was determined by trypan blue exclusion. PBMC (5×10^5) were seeded into 12-well tissue culture dishes (Falcon; Becton Dickinson) at 0.75 to 1×10^6 cells/ml at 37° C. in 5% CO2. The above conditions were chosen to mimic conditions for circulating blood monocytes entering tissues at the site of infection via extravasation.
(§2) Following incubation of the cells under various treatment regimens, the tissue culture supernatants were centrifuged at 1000×g for 5 min, then at 10,000×g for 2 min to obtain cell-free samples. Supernatants were aliquoted and then stored at −20° C. prior to assay for various chemokines by capture ELISA (eBioscience and BioSource International Inc., CA, USA respectively)

[2] = test system: Pseudomonas aeruginosa PAO1 strain H103; format: cell-based; settings: PAO1
Method in brief: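 Modified broth microdilution MIC in Mueller Hinton medium, peptides diluted in 0.01% acetic acid/0.2% BSA, polypropylene plates. Inoculum 2-7×10^5 CFU/ml, overnight at 37 °C; MIC is the lowest concentration with no visible growth.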

[3] = test system: lab isolate of Candida albicans; format: cell-based; settings: lab isolate of
Protocol: (§3) Minimal inhibitory concentration (MIC) determination. The MIC of the peptides were measured using a modified broth microdilution method in Mueller Hinton (MH) medium (Wu M, Hancock R E W. 1999. Interaction of the cyclic antimicrobial cationic peptide bactenecin with the outer and cytoplasmic membrane. J Biol Chem 274, 29-35). Briefly, the peptides were dissolved and stored in glass vials. The assay was performed in sterile 96-well polypropylene microtitre plates were used. Serial dilutions of the peptides to be assayed were performed in 0.01% acetic acid (Fisher) containing 0.2% bovine serum albumin (Boehringer Mannheim GmbH) at 10× the desired final concentration. Ten microlitres of the 10× peptides were added to each well of a 96-well polypropylene plate containing 90 μl of MH media per well. Bacteria were added to the plate from an overnight culture at 2-7×10^5 colony forming units/ml and incubated over night at 37° C. The MIC was taken as the concentration at which no growth was observed.
(§4) Strains. For the killing assay a mini-Tn5-lux mutant in Pseudomonas aeruginosa H103 was used. The strain is called H1001 and contains a fliC::luxCDABE transcriptional fusion resulting in constitutive expression of luciferase. The bacterial strains used for the antimicrobial activity assays included Escherichia coli UB1005 (F-, nalA37, metB1), a wild-type Salmonella enterica ssp. typhimurium (S. typhimurium), wild-type Pseudomonas aeruginosa PAO1 strain H103, Enterococcus faecalis ATCC29212, Staphylococcus aureus ATCC25923, and a clinical isolate of Staphylococcus epidermidis obtained from Dr. D. Speert (Department of Medicine, University of British Columbia). Antifungal activity was tested using a lab isolate of Candida albicans obtained from Dr. B. Dill (Department of Microbiology and Immunology, University of British Columbia).

[4] = test system: Staphylococcus aureus ATCC25923; format: cell-based; settings: ATCC25923
Protocol: as §3, §4

[5] = test system: wild-type Salmonella enterica ssp. typhimurium; format: cell-based
Protocol: as §3, §4

[6] = test system: clinical isolate of Staphylococcus epidermidis; format: cell-based; settings: clinical isolate of
Protocol: as §3, §4

[7] = test system: Escherichia coli UB1005; format: cell-based; settings: UB1005
Protocol: as §3, §4

[8] = test system: Enterococcus faecalis ATCC29212; format: cell-based; settings: ATCC29212
Protocol: as §3, §4

[9] = test system: CXCL1 (Gro-α) release by human PBMC; assay: Chemokine induction in PBMC (capture ELISA); format: cell-based; settings: background (196) subtracted
Protocol: FIG. 17. Induction of CXCL1 (Gro-α) release by 7.5×10^5 human PBMC in response to treatment with 20 or 100 μg/ml of different peptides for 24 hours.
as §1, §2

[10] = test system: MCP-3 release by human PBMC; assay: Chemokine induction in PBMC (capture ELISA); format: cell-based; settings: background (6) subtracted
Protocol: FIG. 16. Induction of MCP3 release by 7.5×10^5 human PBMC in response to treatment with 20 or 100 μg/ml of different peptides for 24 hours.
as §1, §2

[11] = test system: Liverpool Epidemic Strains; format: cell-based, Pseudomonas aeruginosa
Protocol: as §3
(§5) All peptides derived from the 1st, 2nd, and 3rd quartiles were further evaluated for their antibacterial activities against several highly antibitoic resistant pathogens (Table 3). These included clinical isolates of MRSA, ESBL E. cloacae, and multidrug resistant Pseudomonas strains including Brazilian clinical isolates of P. aeruginosa that are resistant to meropenem, ceftazidime, piperacillin/tazobactam, ciprofloxacin, cefepime and polymyxin B, and the Liverpool Epidemic Strains. […] Such results characterize the developed peptides as excellent antibiotic candidates, providing new means for treating most dangerous and severe forms of human infections.

[12] = test system: multidrug resistant Pseudomonas maltophilia ATCC13637; format: cell-based
Protocol: as §3
(§6) The selected peptides were synthesized and assayed against several major antibiotic-resistant pathogens. Initially, the peptides were screened against the laboratory strain of P. aeruginosa PAO1 to compare the results with the training data. […] The antibacterial activity in the form of minimal inhibitory concentration (MIC) of the other studied peptides was assessed in greater depth (Table 9) against many highly antibiotic resistanct pathogens.

[13] = test system: ESBL E. coli clinical strain 64771; format: cell-based; settings: ESBL clinical strain 64771
Protocol: as §3, §6

[14] = test system: ESBL Klebsiella pneumonia clinical strain 63575; format: cell-based
Protocol: as §3, §6

[15] = test system: ESBL E. cloacae; format: cell-based, Enterobacter cloacae
Protocol: as §3, §5

[16] = test system: clinical isolates of MRSA; format: cell-based, Staphylococcus aureus
Protocol: as §3, §5

MIC [4] [µM]	MIC [8] [µM]	MIC [11] [µM]	MIC [12] [µM]	MIC [13] [µM]	MIC [14] [µM]	MIC [15] [µM]	MIC [16] [µM]	MIC against P. aeruginosa PAO1 [2] [µM]	Compound	Chemokine induction MCP-1 ([1]; 20 μg/ml peptide) [pg/mL]	Chemokine induction MCP-1 ([1]; 100 μg/ml peptide) [pg/mL]	Chemokine induction Gro-α ([9]; 20 μg/ml peptide) [pg/mL]	Chemokine induction Gro-α ([9]; 100 μg/ml peptide) [pg/mL]	Chemokine induction MCP-3 ([10]; 20 μg/ml peptide) [pg/mL]	Chemokine induction MCP-3 ([10]; 100 μg/ml peptide) [pg/mL]	also measured
–	–	–	–	–	–	–	–	–	CC[C@H](C)[C@H](NC(=O)[C@H](CCCNC(=N)N)NC(=O)[C@H](Cc1ccccc1)NC(=O)[C@H](CCC(N)=O)NC(=O)[C@@H](N)CCCCN)C(=O)N[C@@H](CCCNC(=N)N)C(=O)N[C@H](C(=O)N[C@@H](CCCNC(=N)N)C(=O)N[C@H](C(=O)N[C@H](C(=O)N[C@@H](CCCNC(=N)N)C(=O)N[C@@H](CCCCN)C(N)=O)[C@@H](C)CC)C(C)C)C(C)C [HH12, KQFRIRVRVIRK] (H-KQFRIRVRVIRK-NH2; N-terminus assumed)	1649	635	773	172	91	21	MIC P. aerug [2]: 6 µg/mL (≈ 3.75 µM); MIC C. albicans [3]: 6 µg/mL (≈ 3.75 µM); MIC S. aureus [4]: 12 µg/mL (≈ 7.51 µM); MIC S. typhi [5]: 6 µg/mL (≈ 3.75 µM); MIC S. epi. [6]: 1.6 µg/mL (≈ 1 µM); MIC E. coli [7]: 3 µg/mL (≈ 1.88 µM); MIC E. faecalis [8]: 25 µg/mL (≈ 15.6 µM)
1.5 (≈ 2.16 µg/mL)	24 (≈ 34.5 µg/mL)	1.5 (≈ 2.16 µg/mL)	0.8 (≈ 1.15 µg/mL)	6 (≈ 8.63 µg/mL)	24 (≈ 34.5 µg/mL)	24 (≈ 34.5 µg/mL)	3 (≈ 4.32 µg/mL)	4 to 12	N=C(N)NCCC[C@H](NC(=O)[C@H](CCCNC(=N)N)NC(=O)[C@@H](N)Cc1ccccc1)C(=O)N[C@@H](Cc1c[nH]c2ccccc12)C(=O)N[C@@H](Cc1c[nH]c2ccccc12)C(=O)N[C@@H](CCCCN)C(=O)N[C@@H](Cc1c[nH]c2ccccc12)C(=O)N[C@@H](Cc1ccccc1)C(=O)N[C@@H](CCCCN)C(N)=O [HHC53, FRRWWKWFK] (H-FRRWWKWFK-NH2; N-terminus assumed)	-26	391	-23	2	-1	5	–
6 (≈ 8.13 µg/mL)	13 (≈ 17.6 µg/mL)	6 (≈ 8.13 µg/mL)	3 (≈ 4.07 µg/mL)	13 (≈ 17.6 µg/mL)	50 (≈ 67.8 µg/mL)	50 (≈ 67.8 µg/mL)	63 (≈ 85.4 µg/mL)	4 to 12	CC[C@H](C)[C@H](NC(=O)[C@H](CCCNC(=N)N)NC(=O)[C@H](CCCCN)NC(=O)[C@@H](NC(=O)[C@H](Cc1c[nH]c2ccccc12)NC(=O)[C@H](Cc1c[nH]c2ccccc12)NC(=O)[C@H](Cc1c[nH]c2ccccc12)NC(=O)[C@H](CCCNC(=N)N)NC(=O)[C@@H](N)CC(C)C)[C@@H](C)CC)C(N)=O [HHC57, LRWWWIKRI] (H-LRWWWIKRI-NH2; N-terminus assumed)	146	1364	21	18	0	9	–
13 (≈ 17.3 µg/mL)	25 (≈ 33.3 µg/mL)	3 (≈ 4 µg/mL)	1.6 (≈ 2.13 µg/mL)	13 (≈ 17.3 µg/mL)	51 (≈ 68 µg/mL)	25 (≈ 33.3 µg/mL)	13 (≈ 17.3 µg/mL)	4 to 12	CC[C@H](C)[C@H](NC(=O)[C@H](Cc1c[nH]c2ccccc12)NC(=O)[C@@H](NC(=O)[C@H](Cc1c[nH]c2ccccc12)NC(=O)[C@H](CCCNC(=N)N)NC(=O)[C@H](CCCCN)NC(=O)[C@@H](N)CCCCN)C(C)C)C(=O)N[C@@H](CCCNC(=N)N)C(=O)N[C@@H](Cc1ccc(O)cc1)C(N)=O [HHC69, KKRWVWIRY] (H-KKRWVWIRY-NH2; N-terminus assumed)	440	245	17	-3	1	0	–
31 (≈ 43.1 µg/mL)	6 (≈ 8.34 µg/mL)	1.5 (≈ 2.08 µg/mL)	1.5 (≈ 2.08 µg/mL)	1.5 (≈ 2.08 µg/mL)	3.1 (≈ 4.31 µg/mL)	3 (≈ 4.17 µg/mL)	3 (≈ 4.17 µg/mL)	4 to 12	CC[C@H](C)[C@H](NC(=O)[C@H](Cc1c[nH]c2ccccc12)NC(=O)[C@H](CCCCN)NC(=O)[C@@H](N)CCCNC(=N)N)C(=O)N[C@@H](Cc1c[nH]c2ccccc12)C(=O)N[C@@H](CCCNC(=N)N)C(=O)N[C@@H](Cc1c[nH]c2ccccc12)C(=O)N[C@@H](Cc1ccccc1)C(=O)N[C@@H](CC(C)C)C(N)=O [HHC75, RKWIWRWFL] (H-RKWIWRWFL-NH2; N-terminus assumed)	1313	6140	554	1683	34	322	–

Compound	MIC [4] [µM]	MIC [8] [µM]	MIC [11] [µM]	MIC [12] [µM]	MIC [13] [µM]	MIC [14] [µM]	MIC [15] [µM]	MIC [16] [µM]	MIC against P. aeruginosa PAO1 [2] [µM]	Chemokine induction MCP-1 ([1]; 20 μg/ml peptide) [pg/mL]	Chemokine induction MCP-1 ([1]; 100 μg/ml peptide) [pg/mL]	Chemokine induction Gro-α ([9]; 20 μg/ml peptide) [pg/mL]	Chemokine induction Gro-α ([9]; 100 μg/ml peptide) [pg/mL]	Chemokine induction MCP-3 ([10]; 20 μg/ml peptide) [pg/mL]	Chemokine induction MCP-3 ([10]; 100 μg/ml peptide) [pg/mL]	also measured
CC[C@H](C)[C@H](NC(=O)[C@@H](N)CCCCN)C(=O)N[C@@H](Cc1c[nH]c2ccccc12)C(=O)N[C@@H](Cc1c[nH]c2ccccc12)C(=O)N[C@@H](Cc1c[nH]c2ccccc12)C(=O)N[C@@H](Cc1c[nH]c2ccccc12)C(=O)N[C@@H](CCCNC(=N)N)C(=O)N[C@@H](CCCCN)C(=O)N[C@@H](CCCNC(=N)N)C(N)=O [HHC8, KIWWWWRKR] (H-KIWWWWRKR-NH2; N-terminus assumed)	6 (≈ 8.66 µg/mL)	24 (≈ 34.7 µg/mL)	5.9 (≈ 8.52 µg/mL)	3 (≈ 4.33 µg/mL)	6 (≈ 8.66 µg/mL)	47 (≈ 67.9 µg/mL)	94 (≈ 136 µg/mL)	6 (≈ 8.66 µg/mL)	–	68	835	9	-11	1	4	–
